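96-well plates; 48 h exposure; 5 concentrations. Endpoints by linear interpolation between flanking doses. Not reached: highest tested concentration assigned. GI50 = concentration required for 50% inhibition of growth.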 Activity calls are given as the source filed them. Cut-off read from the data, not from the text of the source: active = GI50 up to about 1.1 µM and inactive = higher.
Tests used:
Assay in all cases: NCI anticancer screen, dose series, 48 h
DLD-1 = tested on: DLD-1
HT-29 = tested on: HT-29
SW-620 = tested on: SW-620
COLO 205 = tested on: COLO 205
MOLT-4 = tested on: MOLT-4
SN12C = tested on: SN12C
SK-MEL-2 = tested on: SK-MEL-2
KM-20L2 = tested on: KM-20L2
NCI-H522 = tested on: NCI-H522
UACC-257 = tested on: UACC-257
SNB-19 = tested on: SNB-19
CAKI-1 = tested on: CAKI-1
OVCAR-5 = tested on: OVCAR-5
IGROV-1 = tested on: IGROV-1
UACC-62 = tested on: UACC-62
A498 = tested on: A498
SF-295 = tested on: SF-295
SK-MEL-28 = tested on: SK-MEL-28
RPMI-8226 = tested on: RPMI-8226
M14 = tested on: M14
SF-268 = tested on: SF-268
OVCAR-3 = tested on: OVCAR-3
HCT-15 = tested on: HCT-15
CCRF-CEM = tested on: CCRF-CEM
XF498 = tested on: XF498
K562 = tested on: K562
SNB-75 = tested on: SNB-75
KM12 = tested on: KM12
UO-31 = tested on: UO-31
OVCAR-4 = tested on: OVCAR-4
HOP-62 = tested on: HOP-62
Malme-3M = tested on: Malme-3M
786-0 = tested on: 786-0
NCI-H460 = tested on: NCI-H460
HCC 2998 = tested on: HCC 2998
DMS-114 = tested on: DMS-114
SK-OV-3 = tested on: SK-OV-3
SK-MEL-5 = tested on: SK-MEL-5
EKVX = tested on: EKVX
NCI-H23 = tested on: NCI-H23
OVCAR-8 = tested on: OVCAR-8
ACHN = tested on: ACHN
HCT-116 = tested on: HCT-116
SF-539 = tested on: SF-539
LXFL 529 = tested on: LXFL 529
A549 = tested on: A549
U-251 = tested on: U-251
TK-10 = tested on: TK-10
M19-MEL = tested on: M19-MEL
HOP-18 = tested on: HOP-18
SNB-78 = tested on: SNB-78

SMILES: O=C(O)c1cc(-c2ccccc2O)nc2ccccc12
- GI50 (DLD-1): > 100 µM (inactive)
- GI50 (HT-29): > 100 µM (inactive)
- GI50 (SW-620): > 100 µM (inactive)
- GI50 (COLO 205): > 100 µM (inactive)
- GI50 (MOLT-4): > 100 µM (inactive)
- GI50 (SN12C): > 100 µM (inactive)
- GI50 (SK-MEL-2): > 100 µM (inactive)
- GI50 (KM-20L2): > 100 µM (inactive)
- GI50 (NCI-H522): > 100 µM (inactive)
- GI50 (UACC-257): > 100 µM (inactive)
- GI50 (SNB-19): > 100 µM (inactive)
- GI50 (CAKI-1): > 100 µM (inactive)
- GI50 (OVCAR-5): > 100 µM (inactive)
- GI50 (IGROV-1): > 100 µM (inactive)
- GI50 (UACC-62): > 100 µM (inactive)
- GI50 (A498): > 100 µM (inactive)
- GI50 (SF-295): > 100 µM (inactive)
- GI50 (SK-MEL-28): > 100 µM (inactive)
- GI50 (RPMI-8226): > 100 µM (inactive)
- GI50 (M14): > 100 µM (inactive)
- GI50 (SF-268): > 100 µM (inactive)
- GI50 (OVCAR-3): > 100 µM (inactive)
- GI50 (HCT-15): > 100 µM
- GI50 (CCRF-CEM): > 100 µM (inactive)
- GI50 (XF498): > 100 µM (inactive)
- GI50 (K562): > 100 µM (inactive)
- GI50 (SNB-75): > 100 µM (inactive)
- GI50 (KM12): > 100 µM (inactive)
- GI50 (UO-31): > 100 µM (inactive)
- GI50 (OVCAR-4): > 100 µM (inactive)
- GI50 (HOP-62): > 100 µM (inactive)
- GI50 (Malme-3M): > 100 µM (inactive)
- GI50 (786-0): > 100 µM (inactive)
- GI50 (NCI-H460): > 100 µM (inactive)
- GI50 (HCC 2998): > 100 µM (inactive)
- GI50 (DMS-114): > 100 µM (inactive)
- GI50 (SK-OV-3): > 100 µM (inactive)
- GI50 (SK-MEL-5): > 100 µM (inactive)
- GI50 (EKVX): > 100 µM (inactive)
- GI50 (NCI-H23): > 100 µM (inactive)
- GI50 (OVCAR-8): > 100 µM (inactive)
- GI50 (ACHN): > 100 µM (inactive)
- GI50 (HCT-116): > 100 µM (inactive)
- GI50 (SF-539): > 100 µM (inactive)
- GI50 (LXFL 529): > 100 µM (inactive)
- GI50 (A549): > 100 µM (inactive)
- GI50 (U-251): > 100 µM (inactive)
- GI50 (TK-10): > 100 µM (inactive)
- GI50 (M19-MEL): > 100 µM (inactive)
- GI50 (HOP-18): 26.2 µM (inactive)
- GI50 (SNB-78): > 100 µM (inactive)

— ChEMBL document CHEMBL1201862, “PubChem BioAssay data set” (2004)
